Read-outs that look alike come from different tables or passages of the source.

The text below walks through data of patent US20210338626A1, “METHODS FOR TREATING OR PREVENTING A VIRAL INFECTION OR INHIBITING VIRAL REPLICATION” (Dalcor Pharma UK Ltd., Leatherhead, Zug Branch, priority 2020, published 2021).

Series [1] has as its system SARS-CoV-2. The experiment in a line: SARS-CoV-2 plaque formation in Vero E6 cells. It is filed as cell-based. The conditions noted are these: Severe acute respiratory syndrome coronavirus 2, Vero C1008, pre-incubated one hour before addition of virus, read-out: IC50, SARS-CoV-2 plaque formation / viral replication.
Details of series [2]: species or system monkeys. The conditions noted are these: monkey, in vivo. The text has this:
(§1) In rats, the percentages of an administered oral dose excreted into the feces as dalcetrapib-ester and dalcetrapib thiol plus dalcetrapib thiol dimer are 41.1% and 17.8%, respectively. The corresponding values following oral administration in monkeys are 11.6% and 22.2%.

Details of series [3]: species or system rodents. Particulars: in vivo, po.
From the text: as §1

The conditions of series [4]: in vivo; cited from earlier work.
The target of series [5] is T1, cholesteryl ester transfer protein (Homo sapiens, UniProt P11597).
T1 sequence (P11597 18-493): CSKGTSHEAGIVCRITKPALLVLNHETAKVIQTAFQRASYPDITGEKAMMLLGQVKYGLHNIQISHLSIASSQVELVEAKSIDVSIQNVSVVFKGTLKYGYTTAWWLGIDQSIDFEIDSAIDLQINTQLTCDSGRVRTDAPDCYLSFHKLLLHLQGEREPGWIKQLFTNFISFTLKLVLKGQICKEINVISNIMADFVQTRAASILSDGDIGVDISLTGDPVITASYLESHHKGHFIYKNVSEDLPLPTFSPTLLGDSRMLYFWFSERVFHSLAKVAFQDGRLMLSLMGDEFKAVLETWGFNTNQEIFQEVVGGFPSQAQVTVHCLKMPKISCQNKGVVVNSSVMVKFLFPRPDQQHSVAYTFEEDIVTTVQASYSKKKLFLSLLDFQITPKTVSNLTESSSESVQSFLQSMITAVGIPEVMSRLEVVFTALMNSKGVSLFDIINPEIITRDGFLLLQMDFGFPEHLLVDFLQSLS
Particulars: cited from earlier work.

On the set-up of series [6]: species or system rats. The conditions noted are these: rat, in vivo.
From the text: as §1

Consider `CCC(CC)CC1(C(=O)Nc2ccccc2S)CCCCC1` [Dalcetrapib thiol], for which the IC50 in series [1] was around 17.8 µM.
With `CCC(CC)CC1(C(=O)Nc2ccccc2SC(=O)C(C)C)CCCCC1` [Dalcetrapib], the “percentage of administered oral dose excreted into the feces as dalcetrapib thiol plus dalcetrapib thiol dimer” value turned out to be 22.2% in series [2] and 17.8% in series [6]. Besides, the “percentage of administered oral dose excreted into the feces as dalcetrapib-ester” value in series [2] was 11.6%; in series [6] it was 41.1%. For the same molecule, the tissue distribution result in series [3] is “distributes in all tissues including the lungs and gastrointestinal tract”. Besides, the “safety issues from formation of covalent protein adducts” value in series [4] was “has not been observed”. The IC50 in series [5] (pre-incubation 1 hour) was 1.18 µM; in series [5] (pre-incubation 24 hours), 0.045 µM; in series [1] it was 17.8 µM.
